Data: patent US4876277A, “Antimicrobial/antifungal compositions” (Plant Cell Research Institute, Inc., priority 1987, dated 1989)
Values after ≈ are worked out from the molar mass of the structure shown. Like-named read-outs stand apart in the source and are kept apart here.

Columns and labels:
Erysiphe graminis = assay: in vivo fungicide screen: wheat powdery mildew (WPM); settings: for % compared to control, WPM: 100 ppm, foliar spray before infection
fish = settings: in vivo; cited from earlier work
pigweed = assay: herbicide screening: pigweed; settings: in vivo
Excerpt: (§1) As noted above the compounds are ineffective as herbicides against one or more of the following weeds: average dicots, cocklebur, morning glory, pigweed, smartweed, velvet leaf, average monocots, barnyard grass, green foxtail, johnson grass, yellow nutsedge and the wild oat in both pre-emergent and post-emergent screening tests, at application rates of 2 lbs/acre for Compound 4, and 4 lbs/acre for Compound 5.

Pellicularia filamentosa = assay: in vivo fungicide screen: rice sheath blight (RSB); settings: for % compared to control, RSB: 100 ppm, foliar spray before infection
[1] = tested on: southern root knot nematode; assay: insecticide activity: southern root knot nematode; assay type: in vivo; settings: 150 to 600 ppm
Cladosporium herbarum = assay: ED50 on fungi, mycelial growth on V-8 juice agar: Cladosporium herbarum; assay type: cell-based; settings: Example 2, 72 hrs, read-out: ED50 concentration, CH
southern armyworm = assay: insecticide activity: southern armyworm; assay type: in vivo; settings: 150 to 600 ppm
green peach aphid = assay: insecticide activity: green peach aphid; assay type: in vivo; settings: 150 to 600 ppm
[2] = tested on: haploid lab strain from Yeast I; assay: ED50 on yeast, liquid nutrient medium: Yeast II; assay type: cell-based; settings: Saccharomyces cerevisiae, 48 h, read-out: ED50 concentration, Yeast-II
[3] = tested on: Agrobacterium tumefaciens; assay: ED50 on bacteria, liquid nutrient medium: Agrobacterium tumefaciens; assay type: cell-based; settings: 48 h, Example 9, two days, read-out: ED50 concentration, AT
[4] = tested on: Helminthosporium carbonum; assay: ED50 on fungi, mycelial growth on V-8 juice agar: Helminthosporium carbonum; assay type: cell-based; settings: Bipolaris zeicola, Example 3, 72 hrs, read-out: ED50 concentration, HC
Puccinia recondita = assay: in vivo fungicide screen: wheat leaf rust (WLR); settings: for % compared to control, WLR: 100 ppm, foliar spray before infection
velvet leaf = assay: herbicide screening: velvet leaf; settings: in vivo
Excerpt: as §1

Phytophtora infestans = assay type: in vivo
Xanthomonas campestris = assay: activity on Xanthomonas campestris; assay type: cell-based
mexican bean beetle = assay: insecticide activity: mexican bean beetle; assay type: in vivo; settings: 150 to 600 ppm
[5] = tested on: Pseudoperonospora cubensis; assay: in vivo fungicide screen: cucumber downy mildew (CDM); settings: for % compared to control, CDM: 100 ppm, foliar spray before infection
average monocots = assay: herbicide screening: average monocots; settings: in vivo
Excerpt: as §1

two-spotted spider mite = assay: insecticide activity: two-spotted spider mite; assay type: in vivo; settings: 150 to 600 ppm
average dicots = assay: herbicide screening: average dicots; settings: in vivo
Excerpt: as §1

Pyrenochaeta terrestris = assay: ED50 on fungi, mycelial growth on V-8 juice agar: Pyrenochaeta terrestris; assay type: cell-based; settings: Setophoma terrestris, Example 5, 72 hrs, read-out: ED50 concentration, PT
Piricularia oryzae = assay type: in vivo
weeds = assay: pre-emergent and post-emergent herbicide screening tests; assay type: in vivo
Excerpt: as §1

Alternaria chrysanthemi = assay: ED50 on fungi, mycelial growth on V-8 juice agar: Alternaria chrysanthemi; assay type: cell-based; settings: Example 6, 72 hrs, read-out: ED50 concentration, AC
green foxtails = assay: herbicide screening: green foxtails; settings: in vivo
Excerpt: as §1

southern corn rootworm = assay: insecticide activity: southern corn rootworm; assay type: in vivo; settings: 150 to 600 ppm
Rhizobium japonicum = assay: ED50 on bacteria, liquid nutrient medium: Rhizobium japonicum; assay type: cell-based; settings: Bradyrhizobium japonicum, 48 h, Example 10, two days, read-out: ED50 concentration, RJ
[6] = tested on: Saccharomyces cerevisiae from Universal Foods; assay: ED50 on yeast, liquid nutrient medium: Yeast I; assay type: cell-based; settings: 48 h, read-out: ED50 concentration, Yeast-I
signal grass = assay: herbicide screening: signal grass; settings: in vivo
Alternaria brassicicola = assay: ED50 on fungi, mycelial growth on V-8 juice agar: Alternaria brassicicola; assay type: cell-based; settings: Example 4, 72 hrs, read-out: ED50 concentration, AB
[7] = tested on: Xanthomonas campestris pv. campestris; assay: ED50 on bacteria, liquid nutrient medium: X. campestris pv. campestris; assay type: cell-based; settings: 48 h, Example 7, two days, read-out: ED50 concentration, X.C. pv. campestris
johnson grass = assay: herbicide screening: johnson grass; settings: in vivo
Excerpt: as §1

yellow nutsedge = assay: herbicide screening: yellow nutsedge; settings: in vivo
Excerpt: as §1

cockleburr = assay: herbicide screening: cocklebur; settings: in vivo
Excerpt: as §1

smartweed = assay: herbicide screening: smartweed; settings: in vivo
Excerpt: as §1

morning glory = assay: herbicide screening: morning glory; settings: in vivo
Excerpt: as §1

barnyard grass = assay: herbicide screening: barnyard grass; settings: in vivo
Excerpt: as §1

[8] = tested on: Xanthomonas campestris pv. carotae; assay: ED50 on bacteria, liquid nutrient medium: X. campestris pv. carotae; assay type: cell-based; settings: 48 h, read-out: ED50 concentration, X.C. pv. carotae
wild oat = assay: herbicide screening: wild oat; settings: in vivo
Excerpt: as §1

cockroaches = settings: in vivo; cited from earlier work
houseflies = settings: in vivo; cited from earlier work
flour beetles = settings: in vivo; cited from earlier work
apples = settings: in vivo; cited from earlier work
[9] = 100 ppm, foliar spray before infection

Compound: CC(C)(C)C(=O)C(Oc1ccc(Cl)cc1)n1cncn1 (stereo not drawn) [BAYLETON]
- activity preventing infection of wheat by Erysiphe graminis (Erysiphe graminis; in vivo): 100%
- toxicity to fish (fish): toxic to fish

Compound: C=CCc1cc(OC)c(O)c2c1OCO2 [Compound 4, 6-methoxy-2,3-methylenedioxy-4-allyl phenol]
- herbicide effect, pigweed (pigweed): ineffective
- % compared to control, RSB (Pellicularia filamentosa): 0%
- % compared to control, WPM (Erysiphe graminis): 75%
- insecticide activity, southern root knot nematode [1]: ineffective
- IC50 (Cladosporium herbarum): 16.5 µg/mL (≈ 79.2 µM)
- insecticide activity, southern armyworm (southern armyworm): ineffective
- insecticide activity, green peach aphid (green peach aphid): ineffective
- IC50 ([2]; Example 12, liquid medium, two days): > 500 µg/mL
- IC50 [3]: > 200 µg/mL
- IC50 [4]: 18 µg/mL (≈ 86.4 µM)
- % compared to control, WLR (Puccinia recondita): 0%
- herbicide effect, velvet leaf (velvet leaf): ineffective
- % compared to control, TLB (Phytophtora infestans; [9]): 0%
- effect on Xanthomonas campestris (Xanthomonas campestris): effective
- insecticide activity, mexican bean beetle (mexican bean beetle): ineffective
- % compared to control, CDM [5]: 0%
- herbicide effect, average monocots (average monocots): ineffective
- insecticide activity, two-spotted spider mite (two-spotted spider mite): ineffective
- herbicide effect, average dicots (average dicots): ineffective
- IC50 (Pyrenochaeta terrestris): 10 µg/mL (≈ 48 µM)
- % compared to control, RB (Piricularia oryzae; [9]): 0%
- herbicide effect against one or more of the listed weeds (weeds; 2 lbs/acre): ineffective
- IC50 (Alternaria chrysanthemi): 10 µg/mL (≈ 48 µM)
- herbicide effect, green foxtails (green foxtails): ineffective
- insecticide activity, southern corn rootworm (southern corn rootworm): ineffective
- IC50 (Rhizobium japonicum): > 500 µg/mL
- IC50 ([6]; Example 11, liquid medium, two days): > 500 µg/mL
- herbicide effect, signal grass (signal grass): ineffective
- IC50 (Alternaria brassicicola): 8 µg/mL (≈ 38.4 µM)
- IC50 [7]: 10 µg/mL (≈ 48 µM)

Compound: C=CCc1cc(OC)c(OC)c2c1OCO2 [Compound 5, 4,5-dimethoxy-2,3-methylenedioxy-1-allyl benzene]
- herbicide effect, pigweed (pigweed): ineffective
- % compared to control, RSB (Pellicularia filamentosa): 0%
- effectiveness against rice sheath blight (Pellicularia filamentosa; in vivo): substantially ineffective
- % compared to control, WPM (Erysiphe graminis): 95%
- IC50 (Cladosporium herbarum): 16 µg/mL (≈ 72 µM)
- herbicide effect, johnson grass (johnson grass): ineffective
- IC50 [2]: > 500 µg/mL
- IC50 [3]: > 200 µg/mL
- herbicide effect, yellow nutsedge (yellow nutsedge): ineffective
- IC50 [4]: 16 µg/mL (≈ 72 µM)
- % compared to control, WLR (Puccinia recondita): 0%
- effectiveness against wheat leaf rust (Puccinia recondita; in vivo): substantially ineffective
- herbicide effect, cockleburr (cockleburr): ineffective
- herbicide effect, velvet leaf (velvet leaf): ineffective
- % compared to control, TLB (Phytophtora infestans; in vivo): 0%
- effectiveness against tomato leaf blight (Phytophtora infestans; in vivo): substantially ineffective
- % compared to control, CDM [5]: 0%
- effectiveness against cucumber downy mildew ([5]; in vivo): substantially ineffective
- herbicide effect, smartweed (smartweed): ineffective
- herbicide effect, average monocots (average monocots): ineffective
- herbicide effect, morning glory (morning glory): ineffective
- herbicide effect, average dicots (average dicots): ineffective
- herbicide effect, barnyard grass (barnyard grass): ineffective
- IC50 [8]: 10 µg/mL (≈ 45 µM)
- herbicide effect, wild oat (wild oat): ineffective
- IC50 (Pyrenochaeta terrestris): 10 µg/mL (≈ 45 µM)
- % compared to control, RB (Piricularia oryzae; in vivo): 0%
- effectiveness against rice blast (Piricularia oryzae; in vivo): substantially ineffective
- herbicide effect against one or more of the listed weeds (weeds; 4 lbs/acre): ineffective
- IC50 (Alternaria chrysanthemi): 10 µg/mL (≈ 45 µM)
- herbicide effect, green foxtails (green foxtails): ineffective
- IC50 (Rhizobium japonicum): > 500 µg/mL
- IC50 [6]: > 500 µg/mL
- IC50 (Alternaria brassicicola): 8 µg/mL (≈ 36 µM)
- IC50 [7]: 10 µg/mL (≈ 45 µM)

Compound: CCCc1cc2c(c(OC)c1OC)OCO2 [propyl analog of dillapiole]
- synergic with pyrethrins against cockroaches (cockroaches): effective synergic
- synergic with pyrethrins against houseflies (houseflies): effective synergic
- synergic with pyrethrins against flour beetles (flour beetles): effective synergic

Compound: CC(C)OC(=O)C(C(=O)OC(C)C)=C1SCCS1 [FUJI-ONE, diissopropyl-1,3-dithiolau-2-ylidane malonate]
- activity preventing infection of wheat by Erysiphe graminis (Erysiphe graminis; at up to 300 ppm): 0%

Compound: C=CCOC1=NS(=O)(=O)c2ccccc21 [ORYZEMATE]
- activity preventing infection of wheat by Erysiphe graminis (Erysiphe graminis; at up to 300 ppm): 0%

Compound: CCCCNC(=O)n1c(NC(=O)OC)nc2ccccc21 [BENOMYL, methyl 1-(butylcarbamoyl)-2-benzimidazolecarbonate]
- activity preventing infection of wheat by Erysiphe graminis (Erysiphe graminis; in the range of 38-300 ppm): 100%
- fruit finish of apples (apples): apples do not express fine fruit finish
- toxicity to fish (fish): toxic to fish

Compound: CCOP(=O)(Sc1ccccc1)Sc1ccccc1 [EDIFENPHOS, O-ethyl-S,S-diphenyl-dithiophosphate]
- activity preventing infection of wheat by Erysiphe graminis (Erysiphe graminis; in the range of 75-300 ppm): 100%
- toxicity to fish (fish): toxic to fish

Compound: MANCOZEB
- activity preventing infection of wheat by Erysiphe graminis (Erysiphe graminis; at up to 300 ppm): 0%
